We go through 4 molecules from paper PMC9338973, “Rosmarinus officinalis L. hexane extract: phytochemical analysis, nanoencapsulation, and in silico, in vitro, and in vivo anti-photoaging potential evaluation” (Scientific Reports, 2022).

In brackets after ≈: the same amount, converted by molar mass. Several values for one entry are separate records, joined by “and”; a condition that tells them apart may be missing. Equal entries are not always repeated.

For data set [1], the target named is T1, Porcine pancreatic elastase (Sus scrofa, UniProt P00772).
T1 construct: purchased Molecular Probes
The experiment in a line: Anti-elastase assay (EnzCheck, fluorimetric). Type of data set: biochemical. On the procedure: The elastase inhibitory activity was assessed fluorimetrically using the EnzCheck® elastase assay kit (Molecular Probes, Laiden, Netherlands). A 1 mg/mL stock solution of the substrate (DQ elastin) was prepared in deionized water. Porcine pancreatic elastase stock solution was prepared in deionized water at 100 U/mL and dilutions were made in Tris–HCL buffer. Pre-incubation of 50 µL of different dilutions of the extract (inhibitor) with 100 µL of the enzyme was done for 15 min followed by the addition of the substrate (50 µL). Controls were prepared with buffer instead of extract. Fluorescence intensity was continuously measured for 20 min in a fluorescence microplate reader equipped with standard fluorescein filters (λex 505 nm, λem 515 nm). Subtraction of background fluorescence was done in no-enzyme wells. 1,10-Phenathrolinewas used as a standard elastase inhibitor. The IC50 is the concentration of the extract required to inhibit 50% of elastase activity.
The percentage of elastase inhibition(%)=(1-S/C)×100 where S is the corrected fluorescence of the extract samples and C is the corrected fluorescence of the control.

Data set [2] addresses collagenase. The experiment in a line: Anti-collagenase assay (fluorimetric, BODIPY-gelatin). Type of data set: biochemical. On the procedure:
The evaluation of collagenase inhibitory activity was performed fluorimetrically in a microplate reader. Briefly, the self-quenched BODIPY conjugate of gelatin (Type B) was used as a fluorogenic substrate to monitor the activity of collagenase (Biovision, CA, USA). Collagenase stock solution was prepared in 50 mM Tricine buffer at 0.8 U/mL and the substrate (BODIPY) was dissolved in Tricine buffer to 2 mM. One microliter of different concentrations of the extract (1, 10, 100, and 1000 µg/mL) was incubated with the 5 µL collagenase in buffer and 44 µL Tricine buffer for 15 min before adding the substrate. […] The reaction is initiated by mixing two µL of the substrate with the previous reaction mixture. Negative controls were prepared with the buffer. Fluorescence intensity was monitored (λex 490 nm, λem 520 nm, 515 nm cut-off) in a kinetic mode at 37 °C for 30–60 min.
The percentage of collagenase inhibition(%)=(1-S/C)×100 where S is the corrected fluorescence of the extract sample and C is the corrected fluorescence of the control.

A short description of data set [3]: DPPH radical scavenging activity. On the procedure:
The scavenging activity of the stable 2,2-diphenyl-1-picrylhydrazyl (DPPH) free radical by RHE was assessed according to the method reported by Boly et al.[112].

For data set [4], the target named is elastase enzyme. More on the design: method as in doi:10.1517/13543776.3.8.1237. Particulars: cited from earlier work.
Data set [5] can be described thus: Cytotoxicity MTT assay. Particulars: human, WI-38 normal lung fibroblast cells, WI38 cell line, read-out: cytotoxic effect IC50. In kind it is cell-based. On the procedure: The cytotoxicity of RHE extract was evaluated against human normal lung fibroblasts cell line WI-38 using MTT (3-(4,5-dimethylthiazol-2-yl)2,5-diphenyl tetrazolium bromide) assay[116] as recently described.
For orientation: Tetrazolium assays rely on reduction of a dye to a coloured formazan, in cell work by metabolically active cells.

T1 sequence (P00772 27-266): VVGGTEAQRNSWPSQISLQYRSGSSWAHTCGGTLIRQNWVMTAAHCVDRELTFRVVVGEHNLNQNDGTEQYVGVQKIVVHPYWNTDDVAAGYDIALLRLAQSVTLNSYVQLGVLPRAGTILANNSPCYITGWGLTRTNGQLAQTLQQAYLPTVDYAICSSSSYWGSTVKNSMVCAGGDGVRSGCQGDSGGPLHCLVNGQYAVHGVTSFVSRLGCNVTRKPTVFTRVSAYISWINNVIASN

Broadly, the IC50 is the concentration that inhibits the measured activity by half. With `c1cnc2c(c1)ccc1cccnc12` [1,10-Phenanthroline], in data set [1], the midpoint of inhibition, the IC50, lay at 142 µM. Besides, in data set [2], the “IC50 Collagenase” value was 340.8 ± 17.3 µg/mL (≈ 1890 µM).
Turning to `Cc1c(C)c2c(c(C)c1O)CCC(C)(C(=O)O)O2` (centres unmarked) [Trolox], the “DPPH (IC50, µg/mL)” value in data set [3] is 6.1 ± 0.2 µg/mL and 6.11 ± 0.2 µg/mL.
For the molecule `CC1=CC(=O)[C@@H]2C[C@H]1C2(C)C` [Verbenone], in data set [4], the “IC50 of elastase enzyme inhibition” value is recorded as “picomolar range”.
On to `Nc1nc2c(ncn2COCCO)c(=O)[nH]1` [acyclovir], for which the 50% inhibitory concentration (IC50) in data set [5] was 48.6 ± 3.2 µg/mL (≈ 216 µM).
